One may read the Kd as the free concentration of one partner at which half of the binding sites on the other are occupied at equilibrium, for simple one-to-one binding. Lower therefore signals higher affinity.

SMILES strings stand for the structures.

This assay has as its target T1, FLT3 ITD (Homo sapiens, UniProt P36888).
T1 construct: fused on or other part: DNA tag for qPCR detection (T7 phage fusion or DNA-tagged protein from HEK-293 cells)
T1 sequence (P36888 1-993): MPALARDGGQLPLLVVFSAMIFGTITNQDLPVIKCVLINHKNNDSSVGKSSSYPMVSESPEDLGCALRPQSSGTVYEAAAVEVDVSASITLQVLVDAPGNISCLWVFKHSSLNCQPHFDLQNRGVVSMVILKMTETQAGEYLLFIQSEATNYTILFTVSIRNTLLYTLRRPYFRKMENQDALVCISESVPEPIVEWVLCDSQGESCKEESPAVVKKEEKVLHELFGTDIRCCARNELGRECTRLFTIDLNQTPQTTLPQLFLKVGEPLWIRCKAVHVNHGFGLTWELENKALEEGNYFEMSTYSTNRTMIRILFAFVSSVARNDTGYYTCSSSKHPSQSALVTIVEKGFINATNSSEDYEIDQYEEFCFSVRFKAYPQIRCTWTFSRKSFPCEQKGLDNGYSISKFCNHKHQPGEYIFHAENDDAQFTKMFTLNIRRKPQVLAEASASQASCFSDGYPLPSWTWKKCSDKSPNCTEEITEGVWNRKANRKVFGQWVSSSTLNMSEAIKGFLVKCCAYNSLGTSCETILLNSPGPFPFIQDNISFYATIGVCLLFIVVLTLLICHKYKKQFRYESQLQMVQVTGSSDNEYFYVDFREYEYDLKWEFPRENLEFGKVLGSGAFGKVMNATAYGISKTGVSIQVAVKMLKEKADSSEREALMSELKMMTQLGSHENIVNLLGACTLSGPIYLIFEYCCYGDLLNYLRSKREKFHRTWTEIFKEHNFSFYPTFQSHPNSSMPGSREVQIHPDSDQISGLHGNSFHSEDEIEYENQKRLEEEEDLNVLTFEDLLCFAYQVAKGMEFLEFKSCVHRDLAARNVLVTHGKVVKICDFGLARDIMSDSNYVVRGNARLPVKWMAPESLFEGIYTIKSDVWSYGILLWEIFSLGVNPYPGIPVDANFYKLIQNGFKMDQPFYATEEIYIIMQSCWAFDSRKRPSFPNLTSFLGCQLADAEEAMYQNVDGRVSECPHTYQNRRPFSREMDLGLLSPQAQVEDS
In words: DiscoverX KINOMEscan competition binding, FLT3 ITD. An excerpt: Kinase binding data were obtained for various exemplary compounds prepared according to Examples 1-24 using the DiscoverX KINOMVIEscan® active site-directed competition binding site-directed assay protocol described below. […] As a result, the data report thermodynamic interaction affinities (Kd values), rather than IC50 values that are dependent on ATP concentrations. The assay uses a DNA-tagged version of the protein kinase, and an immobilized ligand bound to a solid support. Compounds that directly or indirectly prevent kinase binding to the immobilized ligand reduce the amount of kinase captured on the solid support, which is detected using an ultra-sensitive qPCR method. Affinity constants reported from the assay have been reported to be independent of the immobilized ligand used that is coupled to the solid support (See supplemental information in Fabian, M. A. et. al., (2005) Nat. Biotechnol. 23, 329-336; Wodicka, L. M. et. al., (2010) Chem. Biol. 17, 1241-1249.)
Kinase-tagged T7 phage strains were prepared in an E. coli host derived from the BL21 strain. E. coli were grown to log-phase and infected with T7 phage and incubated with shaking at 32° C. until lysis. The lysates were centrifuged and filtered to remove cell debris. The remaining kinases were produced in HEK-293 cells and subsequently tagged with DNA for qPCR detection. Streptavidin-coated magnetic beads were treated with biotinylated small molecule ligands for 30 minutes at room temperature to generate affinity resins for kinase assays. The liganded beads were blocked with excess biotin and washed with blocking buffer (SeaBlock (Pierce), 1% BSA, 0.05% Tween 20, 1 mM DTT) to remove unbound ligand and to reduce non-specific binding. Binding reactions were assembled by combining kinases, liganded affinity beads, and test compounds in 1× binding buffer (20% SeaBlock, 0.17×PBS, 0.05% Tween 20, 6 mM DTT). Test compounds were prepared as 111× stocks in 100% DMSO. Kds were determined using an 11-point 3-fold compound dilution series with three DMSO control points. All compounds for Kd measurements are distributed by acoustic transfer (non-contact dispensing) in 100% DMSO. The compounds were then diluted directly into the assays such that the final concentration of DMSO was 0.9%. All reactions were performed in polypropylene 384-well plates. Each was a final volume of 0.02 mL. The assay plates were incubated at room temperature with shaking for 1 hour and the affinity beads were washed with wash buffer (1×PBS, 0.05% Tween 20). The beads were then re-suspended in elution buffer (1×PBS, 0.05% Tween 20, 0.5 μM nonbiotinylated affinity ligand) and incubated at room temperature with shaking for 30 minutes. The kinase concentration in the eluates was measured by qPCR.
Binding constants (Kds) were calculated with a standard dose-response curve using the Hill equation. The Hill Slope was set to −1. Curves were fitted using a non-linear least square fit with the Levenberg-Marquardt algorithm.
Compound `CC1(c2cn3c(-c4cccc(N[C@H]5CNC[C@@H]5F)n4)cnc3cn2)CC1` [Compound 1, N-((3S,4S)-4-fluoropyrrolidin-3-yl)-6-(6-(1-methylcyclopropyl)imidazo[1,2-a]pyrazin-3-yl)pyridin-2-amine] returned a Kd of 87 pM. With `CC1(c2cn3c(-c4cccc(N[C@@H]5CCNC5)n4)cnc3cn2)CC1` [Compound 3, (R)-6-(6-(1-methylcyclopropyl)imidazo[1,2-a]pyrazin-3-yl)-N-(pyrrolidin-3-yl)pyridin-2-amine] the figure was 140 pM; with `CC1(c2cn3c(-c4cccc(N[C@H]5CNCC56CC6)n4)cnc3cn2)CC1` [Compound 5, (R)-N-(6-(6-(1-methylcyclopropyl)imidazo[1,2-a]pyrazin-3-yl)pyridin-2-yl)-5-azaspiro[2.4]heptan-7-amine], 110 pM; with `FC(F)(F)C1(c2cn3c(-c4cccc(N[C@@H]5CCNC5)n4)cnc3cn2)CC1` [Compound 10, (R)-N-(pyrrolidin-3-yl)-6-(6-(1-(trifluoromethyl)cyclopropyl)imidazo[1,2-a]pyrazin-3-yl)pyridin-2-amine], 1400 pM.

Compound `FC(F)c1cn2c(-c3cccc(N[C@H]4CNC[C@@H]4F)n3)cnc2cn1` [Compound 16, 6-(6-(difluoromethyl)imidazo[1,2-a]pyrazin-3-yl)-N-((3S,4S)-4-fluoropyrrolidin-3-yl)pyridin-2-amine] came in with a Kd of 140 pM.

`FC(F)c1cn2c(-c3cccc(N[C@H]4CNCC[C@@H]4F)n3)cnc2cn1` [Compound 25, 6-(6-(difluoromethyl)imidazo[1,2-a]pyrazin-3-yl)-N-((3S,4S)-4-fluoropiperidin-3-yl)pyridin-2-amine] showed a Kd of 340 pM. Compared with the last compound, the Kd is about 2.4-fold higher. Regarding `CC(C)(O)c1cn2c(-c3cccc(N[C@@H]4CCCNC4)n3)cnc2cn1` [Compound 30, (R)-2-(3-(6-(piperidin-3-ylamino)pyridin-2-yl)imidazo[1,2-a]pyrazin-6-yl)propan-2-ol], binding was characterised by a dissociation constant (Kd) of 2900 pM. The same measure for `CC(C)(O)c1cn2c(-c3cccc(N[C@H]4CNCC[C@@H]4F)n3)cnc2cn1` [Compound 31, 2-(3-(6-(((3S,4S)-4-fluoropiperidin-3-yl)amino)pyridin-2-yl)imidazo[1,2-a]pyrazin-6-yl)propan-2-ol]: 1500 pM; for `FC(F)(F)COc1cn2c(-c3cccc(N[C@@H]4CCNC4)n3)cnc2cn1` [Compound 38, (R)-N-(pyrrolidin-3-yl)-6-(6-(2,2,2-trifluoroethoxy)imidazo[1,2-a]pyrazin-3-yl)pyridin-2-amine]: 2300 pM. With `F[C@H]1CNC[C@@H]1Nc1cccc(-c2cnc3cnc(C4CC4)cn23)n1` [Compound 50, 6-(6-cyclopropylimidazo[1,2-a]pyrazin-3-yl)-N-((3S,4S)-4-fluoropyrrolidin-3-yl)pyridin-2-amine] the figure was 91 pM. The compound `Cn1cc(-c2cn3c(-c4cccc(N[C@H]5CNC[C@@H]5F)n4)cnc3cn2)cn1` [Compound 52, N-((3S,4S)-4-fluoropyrrolidin-3-yl)-6-(6-(1-methyl-1H-pyrazol-4-yl)imidazo[1,2-a]pyrazin-3-yl)pyridin-2-amine] had a Kd of 130 pM.
